In patent publication US20260158172A1, “CELL DEATH METHOD USING CRISPR/CAS SYSTEM HAVING SINGLE-STRAND BREAK ACTIVITY AND PARP INHIBITOR” (INSTITUTE FOR BASIC SCIENCE, priority 2023, published 2026):

Experiments:
Assay type in all cases: cell-based
[1] = test system: HeLa cells; assay: Cell viability (CellTiter-Glo), Experimental Example 4: dependence on olaparib concentration; details: nCas9 D10A RNP or siRNA co-treatment, Non-treated (label Olaparib) = PARP inhibitor only
Protocol: (§1) To transfect RNPs, cells were transfected with 665 ng of the Cas protein of each Embodiment and 95 ng of the sgRNA of each Embodiment using a Lipofectamine CRISPRMAX Cas9 Transfection Reagent (Invitrogen, #CMAX00015), and then cultured for 3 days. When treated together with a PARP inhibitor, the PARP inhibitor was treated according to Experimental Example 1.6, and the RNPs were treated one day thereafter.
(§2) To compare cell death effects depending on the concentration of a PARP inhibitor administered, the following experiment was performed. Specifically, Hela cells and HCT-116 cells cultured according to Experimental Example 1.1 were treated with a PARP inhibitor (olaparib) and a CRISPR/nCas composition for cell death having the compositions shown in the following table.
(§3) For each labeled material, experiments were conducted while varying the concentration of olaparib.
(§4) Here, in the case of siRNA, an siRNA having the sequence […] (SEQ ID NO: 40) was used, and 20 pmole thereof was delivered to the cells according to Experimental Example 1.7. After the experiment, cell viability was measured according to Experimental Example 1.8.

[2] = test system: HCT-116 cells; assay: as above; details: nCas9 D10A RNP or siRNA co-treatment, Non-treated (label Olaparib) = PARP inhibitor only
Protocol: as §1, §2, §3, §4

[3] = test system: HeLa cells; assay: Cell viability (CellTiter-Glo), Experimental Example 2: CRISPR/nCas composition for cell death with or without olaparib; details: relative cell viability, sgRNA delivered as nCas9 D10A RNP, Mock = no guide RNA
Protocol: (§5) A total of 0.5×10^4 cells were mixed with 1 μM olaparib (AZD2281) (Selleckchem, #S1060), 1 μM rucaparib (Selleckchem, #S4948), 0.1 μM niraparib (MK-4827) (Selleckchem, #S2741), 2 μM veliparib (ABT-888) (Selleckchem, #S1004), or 10 µM iniparib (BSI-201) (Selleckchem, #S1087), and seeded onto 24-well plates.
as §1
(§6) Cell viability was measured using a CellTiter-Glo Luminescent Cell Viability Assay (Promega, #G7571). After the transfected cells were cultured for 3 days, the cells were detached using Trypsin-EDTA (0.25%) (Gibco, #25200056). The cells were diluted in 400 μL of DMEM, followed by dispensing 100 μL of the cells, mixed with 100 μL of the CellTiter-Glo Reagent, and then incubated at room temperature for 10 minutes. Luminescence signals were measured using an Infinite 200 (Tecan) in a white opaque 96-well plate (Corning, #3917).
(§7) To evaluate the cell death effects of a CRISPR/nCas composition for cell death and a PARP inhibitor, the following experiment was conducted. Specifically, Hela cells and HCT-116 cells cultured according to Experimental Example 1.1 were treated with a PARP inhibitor (olaparib) and a CRISPR/nCas composition for cell death having the compositions shown in the following table.
(§8) The nCas protein used in this experiment was prepared according to Experimental Example 1.2, and the sgRNA used was prepared according to Experimental Example 1.3. The nCas protein and the sgRNA were administered to the cells in the form of RNPs according to Experimental Example 1.7. In the case of the PARP inhibitor, the concentrations disclosed in the above table were applied to each cell according to Experimental Example 1.6.
(§9) Thereafter, cell viability was measured according to Experimental Example 1.8.

[4] = test system: HCT-116 cells; assay: as above; details: relative cell viability, HCT-116, Olaparib (+): olaparib 1 μM, sgRNA delivered as nCas9 D10A RNP, Mock = no guide RNA
Protocol: as §5, §1, §6, §7, §8, §9

[5] = olaparib 10 μM, listed as olaparib

O=C(c1cc(Cc2n[nH]c(=O)c3ccccc23)ccc1F)N1CCN(C(=O)C2CC2)CC1 [Olaparib, olaparib]
Relative cell viability (average, n = 3) ([1]; olaparib 0.0001 μM): 1.0000 | Relative cell viability (average, n = 3) ([1]; olaparib 0.001 μM): 0.9810 | Relative cell viability (average, n = 3) ([1]; olaparib 0.01 μM): 0.9959 | Relative cell viability (average, n = 3) ([1]; olaparib 0.1 μM): 0.9391 | Relative cell viability (average, n = 3) ([1]; olaparib 1 μM): 0.9279 | Relative cell viability (average, n = 3) ([1]; olaparib 10 μM): 0.1192 | Relative cell viability (average, n = 3) [1, 5]: exhibits cytotoxicity | Relative cell viability (average, n = 3) ([2]; olaparib 0.0001 μM): 1.0000 | Relative cell viability (average, n = 3) ([2]; olaparib 0.001 μM): 0.9939 | Relative cell viability (average, n = 3) ([2]; olaparib 0.01 μM): 0.9743 | Relative cell viability (average, n = 3) ([2]; olaparib 0.1 μM): 1.0072 | Relative cell viability (average, n = 3) ([2]; olaparib 1 μM): 1.0307 | Relative cell viability (average, n = 3) ([2]; olaparib 10 μM): 0.7979 | Relative cell viability (average, n = 3) [2, 5]: exhibits cytotoxicity | Rep 1 (rel) ([3]; Olaparib (+): olaparib 1 μM): 1.163 | Rep 2 (rel) ([3]; Olaparib (+): olaparib 1 μM): 0.967 | Rep 3 (rel) ([3]; Olaparib (+): olaparib 1 μM): 1.02 | Average ([3]; average of Rep 1-3, Olaparib (+): olaparib 1 μM): 1.05 | Average ([4]; average of Rep 1-3): 1.05 | Rep 1 (rel) [4]: 0.9889 | Rep 2 (rel) [4]: 1.027 | Rep 3 (rel) [4]: 1.131
